# Key:
# [1] = biological target: S protein of HCoV-229E (Human coronavirus 229E, UniProt P15423); assay: SPR, Reichert4, CM5 chip, protein immobilised; type: binding
# [2] = biological target: S protein of HCoV-OC43 (Human coronavirus OC43, UniProt P36334); assay: SPR, Reichert4, CM5 chip, protein immobilised; type: binding
# Chain of S protein of HCoV-OC43 (P36334 14-1353): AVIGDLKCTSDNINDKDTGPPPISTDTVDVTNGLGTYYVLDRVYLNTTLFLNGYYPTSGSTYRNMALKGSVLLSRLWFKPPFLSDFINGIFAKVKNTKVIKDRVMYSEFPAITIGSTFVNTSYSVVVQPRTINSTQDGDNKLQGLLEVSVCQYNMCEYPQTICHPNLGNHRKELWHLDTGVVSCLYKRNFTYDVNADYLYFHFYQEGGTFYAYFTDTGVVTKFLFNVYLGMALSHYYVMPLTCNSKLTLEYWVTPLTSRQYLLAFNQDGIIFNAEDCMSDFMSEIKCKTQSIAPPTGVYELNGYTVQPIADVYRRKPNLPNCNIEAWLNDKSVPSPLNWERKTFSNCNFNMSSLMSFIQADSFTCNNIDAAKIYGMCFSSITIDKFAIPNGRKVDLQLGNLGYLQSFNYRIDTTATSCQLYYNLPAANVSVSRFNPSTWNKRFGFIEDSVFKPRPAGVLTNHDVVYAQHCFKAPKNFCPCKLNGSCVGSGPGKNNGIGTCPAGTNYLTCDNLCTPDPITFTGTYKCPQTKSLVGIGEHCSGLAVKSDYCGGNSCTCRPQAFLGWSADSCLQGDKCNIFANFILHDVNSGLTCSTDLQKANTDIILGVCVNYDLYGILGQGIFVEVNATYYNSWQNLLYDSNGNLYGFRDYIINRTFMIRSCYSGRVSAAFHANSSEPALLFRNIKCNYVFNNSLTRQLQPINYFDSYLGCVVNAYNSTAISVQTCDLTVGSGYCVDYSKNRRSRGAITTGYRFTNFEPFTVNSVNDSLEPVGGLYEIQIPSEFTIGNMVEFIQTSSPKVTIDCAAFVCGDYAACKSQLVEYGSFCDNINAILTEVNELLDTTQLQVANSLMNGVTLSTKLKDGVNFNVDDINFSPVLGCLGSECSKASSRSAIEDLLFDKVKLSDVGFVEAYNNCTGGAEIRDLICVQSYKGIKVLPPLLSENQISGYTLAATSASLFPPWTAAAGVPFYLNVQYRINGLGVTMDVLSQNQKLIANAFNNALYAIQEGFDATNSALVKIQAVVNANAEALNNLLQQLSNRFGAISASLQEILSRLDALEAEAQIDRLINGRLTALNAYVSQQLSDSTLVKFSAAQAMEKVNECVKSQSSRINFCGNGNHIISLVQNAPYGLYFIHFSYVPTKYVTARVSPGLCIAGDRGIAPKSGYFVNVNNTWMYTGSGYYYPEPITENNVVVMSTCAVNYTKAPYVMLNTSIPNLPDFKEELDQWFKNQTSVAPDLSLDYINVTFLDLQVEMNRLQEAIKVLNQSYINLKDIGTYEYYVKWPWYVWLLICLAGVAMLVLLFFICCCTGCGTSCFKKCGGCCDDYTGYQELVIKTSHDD
# Chain of S protein of HCoV-229E (P15423 16-1173): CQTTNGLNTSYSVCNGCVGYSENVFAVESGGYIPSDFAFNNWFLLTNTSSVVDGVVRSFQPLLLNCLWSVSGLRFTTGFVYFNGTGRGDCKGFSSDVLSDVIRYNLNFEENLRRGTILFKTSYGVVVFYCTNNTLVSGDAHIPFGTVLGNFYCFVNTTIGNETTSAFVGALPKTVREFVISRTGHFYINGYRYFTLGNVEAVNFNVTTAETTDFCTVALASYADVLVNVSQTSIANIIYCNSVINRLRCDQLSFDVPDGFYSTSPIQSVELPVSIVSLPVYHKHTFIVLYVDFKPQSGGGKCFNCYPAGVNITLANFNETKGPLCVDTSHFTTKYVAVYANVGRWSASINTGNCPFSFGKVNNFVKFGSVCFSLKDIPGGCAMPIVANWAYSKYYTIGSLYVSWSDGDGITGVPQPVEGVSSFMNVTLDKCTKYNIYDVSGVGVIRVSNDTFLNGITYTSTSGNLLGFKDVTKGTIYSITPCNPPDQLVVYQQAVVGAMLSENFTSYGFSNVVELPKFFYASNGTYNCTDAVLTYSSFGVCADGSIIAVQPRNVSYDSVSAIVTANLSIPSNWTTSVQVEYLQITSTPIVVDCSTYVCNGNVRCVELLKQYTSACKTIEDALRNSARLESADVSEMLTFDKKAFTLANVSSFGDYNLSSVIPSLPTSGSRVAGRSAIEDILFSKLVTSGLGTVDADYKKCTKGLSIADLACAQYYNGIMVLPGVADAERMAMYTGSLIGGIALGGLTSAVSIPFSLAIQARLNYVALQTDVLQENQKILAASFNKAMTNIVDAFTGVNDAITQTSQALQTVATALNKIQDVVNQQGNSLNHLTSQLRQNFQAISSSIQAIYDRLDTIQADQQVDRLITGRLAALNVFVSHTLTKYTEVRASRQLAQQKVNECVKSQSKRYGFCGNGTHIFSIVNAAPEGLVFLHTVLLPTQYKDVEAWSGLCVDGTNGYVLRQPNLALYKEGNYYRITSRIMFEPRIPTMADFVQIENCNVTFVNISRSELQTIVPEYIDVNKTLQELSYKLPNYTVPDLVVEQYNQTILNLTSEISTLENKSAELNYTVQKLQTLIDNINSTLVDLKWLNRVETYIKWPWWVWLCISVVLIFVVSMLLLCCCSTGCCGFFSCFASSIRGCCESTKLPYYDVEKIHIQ
compound,measurement,setting,value
CC1(C)[C@@H](O[C@H]2O[C@H](C(=O)O)[C@@H](O)[C@H](O)[C@H]2O[C@@H]2O[C@H](C(=O)O)[C@@H](O)[C@H](O)[C@H]2O)CC[C@]2(C)[C@H]3C(=O)C=C4[C@@H]5C[C@@](C)(C(=O)O)CC[C@]5(C)CC[C@@]4(C)[C@]3(C)CC[C@@H]12 [Diammonium glycyrrhizinate],Kd,[1],37.9 µM
same,Kd,[2],5.76 µM
